# Measurements taken from patent publication US20140094465A1, “Compounds as S-Nitrosoglutathione Reductase Inhibitors” (N30 PHARMACEUTICALS, INC., priority 2011, published 2014).
# System: cigarette smoke-induced COPD
# Assay: Acute (4 day) cigarette smoke exposure COPD model
# Assay type: in vivo, mouse
# Details: acute 4 day smoke model
# Procedure: The efficacy of GSNOR inhibitors was assessed in a mouse model of chronic obstructive pulmonary disease (COPD) induced by short duration (4 days or 11 days) of exposure to cigarette smoke. Infiltration of inflammatory cells into the bronchoalveolar lavage fluid (BALF) and BALF levels of chemokines involved in inflammation and tissue turnover/repair were measured to assess the influences of GSNOR inhibitors on some of the early events associated with the initiation and progression of COPD.
# Efficacy of GSNOR inhibitors against COPD was explored using acute (4 day) and subchronic (11 day) models of cigarette smoke-induced COPD in mice. […] In animal models, changes in lung pathology are only evident after extended (several months) duration of exposure to cigarette smoke, thus making chronic models prohibitive as effective screening tools. More recently, models exploring inflammatory responses after short duration (2 weeks or less) of smoke exposure in mice have been utilized as tools for screening efficacy and mechanisms of action of novel therapeutics against COPD. The key roles of inflammation in the initiation and progression of COPD, make these short duration models relevant for initial tests of efficacy of novel therapeutics.
# Female C57Bl/6 mice (N=8 per group) were exposed to cigarette smoke using a whole body exposure chamber. Mice were exposed daily for 4 consecutive days to 4 cycles of smoke from 6 sequential cigarettes (Kentucky 3R4F without filter) with a 30 minute smoke free interval between cycles. GSNOR inhibitors were administered daily via oral dosing at 10 mg/kg/day for 7 days starting 2 days prior to smoke exposure and continuing 1 day post-exposure. The effects of GSNOR inhibitors were assessed by quantitating the numbers of total cells, leukocytes, and leukocytes differentials in the BALF via light microscopy and the levels of BALF chemokines via ELISA at approximately 24 h after the last smoke exposure. The effect of GSNOR inhibitors were compared to vehicle treated controls. The PDE4 inhibitor, roflumilast, was used as the positive control for the study. A group of naïve mice (N=8) was exposed to air and used as a negative control for the study.
smiles,measurement,setting,value
O=c1c2ccc(O)cc2oc(C(F)(F)F)c1[C@H]1CC[C@H](C(=O)O)CC1 [IV-25],effects compared with roflumilast,,comparable to or greater than those observed for roflumilast
same,BALF chemokines,oral 10 mg/kg/day for 7 days,restored BALF chemokines towards levels observed in naïve mice
